# From PubChem BioAssay AID2060504 (Molecular Pharmacology Branch, DTP, NCI, 2025)
# Tested on: 636577-100-R-J1-PDC complex spheroid viability
# Test: Anticancer human tumor 636577-100-R-J1-PDC patient-derived endometrial adenocarcinoma cell line growth inhibition [GQUAD]
# Details: for IC50: curve of first compound; for viability, T/C: stronger effect = lower value
# In short: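 Viability of tumor cells grown as complex spheroids with endothelial and stromal cells, exposed to drug combinations. Top concentration at or near clinical Cmax (else 10 microM), diluted in half-log increments.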
# [1] = second compound 0.0316 µM, first compound 0.0316 µM
# [2] = second compound 0.0316 µM, first compound 0.1 µM
# [3] = second compound 0.0316 µM, first compound 0.316 µM
# [4] = second compound 0.0316 µM, first compound 1 µM
# [5] = second compound 0.0316 µM, first compound 3.16 µM
# [6] = second compound 0.0316 µM, first compound 10 µM
# [7] = second compound 0.1 µM, first compound 0.0316 µM
# [8] = second compound 0.1 µM, first compound 0.1 µM
# [9] = second compound 0.1 µM, first compound 0.316 µM
# [10] = second compound 0.1 µM, first compound 1 µM
# [11] = second compound 0.1 µM, first compound 3.16 µM
# [12] = second compound 0.1 µM, first compound 10 µM
# [13] = second compound 0.316 µM, first compound 0.0316 µM
# [14] = second compound 0.316 µM, first compound 0.1 µM
# [15] = second compound 0.316 µM, first compound 0.316 µM
# [16] = second compound 0.316 µM, first compound 1 µM
# [17] = second compound 0.316 µM, first compound 3.16 µM
# [18] = second compound 0.316 µM, first compound 10 µM
# [19] = second compound 1 µM, first compound 0.0316 µM
# [20] = second compound 1 µM, first compound 0.1 µM
# [21] = second compound 1 µM, first compound 0.316 µM
# [22] = second compound 1 µM, first compound 1 µM
# [23] = second compound 1 µM, first compound 3.16 µM
# [24] = second compound 1 µM, first compound 10 µM
# [25] = second compound 3.16 µM, first compound 0.0316 µM
# [26] = second compound 3.16 µM, first compound 0.1 µM
# [27] = second compound 3.16 µM, first compound 0.316 µM
# [28] = second compound 3.16 µM, first compound 1 µM
# [29] = second compound 3.16 µM, first compound 3.16 µM
# [30] = second compound 3.16 µM, first compound 10 µM
# [31] = second compound 10 µM, first compound 0.0316 µM
# [32] = second compound 10 µM, first compound 0.1 µM
# [33] = second compound 10 µM, first compound 0.316 µM
# [34] = second compound 10 µM, first compound 1 µM
# [35] = second compound 10 µM, first compound 3.16 µM
# [36] = second compound 10 µM, first compound 10 µM
# 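Further: viability read after seven days of drug exposure.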
# 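Wherever viability, T/C is given: luminescence signal used as a proxy for viable cells; 100% = DMSO vehicle control wells.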
smiles,measurement,setting,value
C=CCn1c(=O)c2cnc(Nc3ccc(N4CCN(C)CC4)cc3)nc2n1-c1cccc(C(C)(C)O)n1 + CN(C)c1ccc(Nc2c3ccc(NC(=O)CCN4CCCC4)cc3nc3cc(NC(=O)CCN4CCCC4)ccc23)cc1,IC50,second compound 0.0316 µM,598 nM
same,IC50,second compound 0.1 µM,304 nM
same,IC50,second compound 0.316 µM,382 nM
same,IC50,second compound 1 µM,353 nM
same,IC50,second compound 3.16 µM,< 31.6 nM
same,IC50,second compound 10 µM,< 31.6 nM
same,"viability, T/C",[1],88.3%
same,"viability, T/C",[2],67.3%
same,"viability, T/C",[3],81.4%
same,"viability, T/C",[4],26.6%
same,"viability, T/C",[5],15.9%
same,"viability, T/C",[6],9.28%
same,"viability, T/C",[7],107%
same,"viability, T/C",[8],73.6%
same,"viability, T/C",[9],51.7%
same,"viability, T/C",[10],28.9%
same,"viability, T/C",[11],15.1%
same,"viability, T/C",[12],9.88%
same,"viability, T/C",[13],88.3%
same,"viability, T/C",[14],69.2%
same,"viability, T/C",[15],57.7%
same,"viability, T/C",[16],30.9%
same,"viability, T/C",[17],15.2%
same,"viability, T/C",[18],9.64%
same,"viability, T/C",[19],48.6%
same,"viability, T/C",[20],63%
same,"viability, T/C",[21],52.1%
same,"viability, T/C",[22],32%
same,"viability, T/C",[23],19.2%
same,"viability, T/C",[24],11.6%
same,"viability, T/C",[25],37.6%
same,"viability, T/C",[26],36.8%
same,"viability, T/C",[27],30.9%
same,"viability, T/C",[28],23.8%
same,"viability, T/C",[29],16.5%
same,"viability, T/C",[30],10.8%
same,"viability, T/C",[31],5.9%
same,"viability, T/C",[32],4.13%
same,"viability, T/C",[33],3.79%
same,"viability, T/C",[34],3.8%
same,"viability, T/C",[35],2.91%
same,"viability, T/C",[36],0.74%
CC(=O)O[C@H]1C(=O)[C@@]2(C)[C@H]([C@H](OC(=O)c3ccccc3)[C@]3(O)C[C@H](OC(=O)[C@H](O)[C@@H](NC(=O)c4ccccc4)c4ccccc4)C(C)=C1C3(C)C)[C@]1(OC(C)=O)CO[C@@H]1C[C@@H]2O + Cc1cnc(CNC(=O)c2c(=O)c3ccc(N4CCCN(C)CC4)nc3n3c2sc2ccccc23)cn1,IC50,second compound 0.0316 µM,< 31.6 nM
same,IC50,second compound 0.1 µM,< 31.6 nM
same,IC50,second compound 0.316 µM,< 31.6 nM
same,IC50,second compound 1 µM,< 31.6 nM
same,IC50,second compound 3.16 µM,< 31.6 nM
same,IC50,second compound 10 µM,< 31.6 nM
same,"viability, T/C",[1],22.4%
same,"viability, T/C",[2],13.4%
same,"viability, T/C",[3],13%
same,"viability, T/C",[4],10.6%
same,"viability, T/C",[5],9.54%
same,"viability, T/C",[6],9.18%
same,"viability, T/C",[7],23.1%
same,"viability, T/C",[8],16.2%
same,"viability, T/C",[9],14.3%
same,"viability, T/C",[10],10.2%
same,"viability, T/C",[11],12.1%
same,"viability, T/C",[12],10.1%
same,"viability, T/C",[13],23.6%
same,"viability, T/C",[14],18%
same,"viability, T/C",[15],13.9%
same,"viability, T/C",[16],12.5%
same,"viability, T/C",[17],11.2%
same,"viability, T/C",[18],10.7%
same,"viability, T/C",[19],21.2%
same,"viability, T/C",[20],16.5%
same,"viability, T/C",[21],15%
same,"viability, T/C",[22],14.2%
same,"viability, T/C",[23],13.2%
same,"viability, T/C",[24],10.7%
same,"viability, T/C",[25],19.6%
same,"viability, T/C",[26],18.2%
same,"viability, T/C",[27],17.2%
same,"viability, T/C",[28],14.3%
same,"viability, T/C",[29],15.7%
same,"viability, T/C",[30],14.3%
same,"viability, T/C",[31],18.1%
same,"viability, T/C",[32],18.5%
same,"viability, T/C",[33],17.8%
same,"viability, T/C",[34],15.3%
same,"viability, T/C",[35],15.2%
same,"viability, T/C",[36],15.3%
